Measured values taken from patent US20060247421A1, “Liver x receptor alpha splicing mutant protein, gene thereof and utilization of the same” (priority 2003, published 2006).

Test system: liver X receptor α splicing mutant proteins (D5, 5A and 6A)
Assay: Reporter assay in a transient expression system in HEK293 cells (TATA-LXREx4-luciferase), ligand-dependent transcription activating ability
Assay type: cell-based, human
Conditions: three kinds of liver X receptor α splicing mutant proteins
Experimental: FIG. 5 is a view showing the results of assessment of the function of liver X receptor α splicing mutant proteins (D5, 5A and 6A) by a reporter assay in a transient expression system in HEK293 cells. […] A non-treated section is represented by white, a 1 μg/ml 22R-hydroxycholesterol-treated section is represented by black, and a 1 μg/ml 25-hydroxycholesterol-treated section is represented by gray. In addition, in each test section, 1 μM 9-cis retinoic acid is contained. Letting a value of luciferase activity in a control section (control) in which only a solvent was added to be 100%, a value of luciferase activity in each test section is shown as a relative value. WT means a normal liver X receptor α.
A human fetal kidney-derived HEK293 cell strain (ATCC; CRL-1573) was subcultured in a Dulbecco modified Eagle medium (DMEM) containing 10% bovine fetal serum (FBS) from which low-molecular substances had been removed with charcoal dextran, and penicillin (100 unit/ml) and streptomycin ([…]) as an antibiotic, and not containing phenol red at 37° C. under the presence of 5% CO2. The subcultured HEK293 cell strain was seeded on a 10 cm cell culturing dish to about 2×10^6 cells. […]

In the case of `CC(C)CC[C@@H](O)[C@@H](C)[C@H]1CC[C@H]2[C@@H]3CC=C4C[C@@H](O)CC[C@]4(C)[C@H]3CC[C@]12C` [22R-oxycholesterol], the “transcription activating ability depending on ligand, as compared with that of a normal liver X receptor α” value is reported as “extremely weak or not recognized level”.
